How the values were obtained:
[1] = Intramolecular 19F NMR relaxation rates at 9.4 T; format: physicochemical; details: 5 CF2 groups (precursors and Ga3+ chelate), ± s.e.m.
Excerpt: Intramolecular ^19F NMR relaxometry measurements of 5a isomers further confirmed the structural analyses. We observed that among Fe3+ chelates, 5a OOO isomer had the highest, and 5a PPP isomer had the lowest, R1 and R2 values (Table 3). Ortho-substitution caused a more drastic intramolecular PRE, by ˜3 orders of magnitude, compared to para-substitution due to the closer proximity of the Fe3+ paramagnetic center to the ortho position ([…]) compared to the para position ([…]).
NMR spectra and relaxation rates were recorded on a Bruker Ascend 400 MHz (9.4 T) spectrometer (Billerica, MA). Additional relaxation rate measurements were performed at 3 T using a GE750 (General Electric, Milwaukee, WI) clinical MRI system equipped with a custom dual-channel ^19F/1H 72 mm diameter volume coil (RAPID Biomedical, Rimpar, Germany). The ^19F NMR spectra were referenced to an internal standard, sodium trifluoroacetate (NaTFA, 0.1 wt %, −76.00 ppm, Sigma-Aldrich, T6508), which was placed in a separate sealed capillary tube within the NMR tube. Relaxation measurements were performed using a standard inversion recovery pulse sequence and a Carr-Purcell-Meiboom-Gill sequence with echo-time (TE) values in 12 linear increments. The T1 and T2 values were obtained by nonlinear fitting using MNova 6.0.2 software (Mestrelab, Escondido, CA). Fit errors were less than 5% of T1 and T2 values. For quantitative peak measurements, spectra were acquired using calibrated 90° pulses, 32,000 complex points, spectral window 0 to −200 ppm, relaxation delay 2.5 s, and 128 averages. Spectra were processed in MNova with manual phase correction and Whittaker smoother baseline correction (filter=1 ppm). Relaxation parameters were measured for six middle CF2 peaks of PFOB, spanning ˜10 ppm, which account for 12 out of 17 F atoms in the molecule. To assay nanoemulsion uptake (^19F/cell) using NMR, an aliquot of 1×10^6 cells were pelleted and resuspended in 0.1 mL of lysis solution (0.5% Triton X, 100 mM NaCl, 20 mM Tris, 1 mM EDTA) and reference compound NaTFA (0.745 mg/mL)/D2O was added to 5 mm NMR tube. The integrated ratio of PFOB fluorine peaks to NaTFA singlet fluorine peak at −76.00 ppm determined the amount of ^19F in the cell pellet and the ^19F/cell was calculated.
(§1) NMR measurements. NMR spectra and relaxation rates were recorded on a Bruker Ascend 400 MHz (9.4 T) spectrometer (Billerica, MA). […] For quantitative peak measurements, spectra were acquired using calibrated 90° pulses, 32,000 complex points, spectral window 0 to −200 ppm, relaxation delay 2.5 s, and 128 averages. […] Relaxation parameters were measured for six middle CF2 peaks of PFOB, spanning ˜10 ppm, which account for 12 out of 17 F atoms in the molecule. […]

[2] = Kinetics of emulsion metalation with metal salts (UV-Vis); format: physicochemical
Protocol: Strong absorbance of aromatic diketone and its complexes permits facile kinetic investigation of metalation rates. In a typical measurement, emulsion from example 4 was diluted to 70 uM diketone (excess ligand, modeling radiolabeling conditions) into a solution of chosen pH and treated with 10 uM metal cations of relevance to medical imaging, including Fe^3+ (MRI), Cu^2+ (PET), Ga^3+ (PET, SPECT), Sc^3+ (PET), and In^3+ (SPECT). In all cases, UV-Vis spectral changes indicative of metal uptake into the fluorous phase were detected, proportional in magnitude to the amount of metal. For some metals, kinetic analysis was performed. The reaction time course fit well to a pseudo-first-order process with rate constant kobs (Table 1).

[3] = 19F R1 relaxation leakage test of metalated emulsions with EDTA at 37 °C; format: physicochemical; details: small fluorinated diketones
Excerpt: Decrease in relaxation rate ^19F R1 would indicate sequestration of Fe^3+ to the aqueous phase, where it is too far from fluorine-19 nuclei to have an effect on ^19F R1.
It may be necessary for sufficient stability to use fluorinated diketones with heavily fluorinated substituents that are well-miscible with other fluorinated agents known in the art to be useful for ^19F MRI.

[4] = cited from earlier work
[5] = 3 T; cited from earlier work
[6] = Intermolecular 19F NMR relaxometry and susceptibility shift in PFOB; format: physicochemical; details: neat PFOB
Excerpt: We screened the impact of various cations bound to SALTAME 5a and dissolved in PFOB via NMR relaxometry and susceptibility shift measurements (Table 4). Of the period-4 cations tested (V3+, Cr3+, Mn2+, Fe3+, Co2+, Cu2+, Ni2+, Zn2+, Ga3+), only Mn4+, Fe3+, Co3+, and Ga3+ formed stable and separable (by column chromatography) chelates with SALTAME. […] The diamagnetic Ga3+ chelate had little relaxation effects or shift for PFOB. […] Mn4+ changed r1, r2 and susceptibility shift, but to a much lesser extent than Fe3+.
The longitudinal and transverse ^19F relaxation rates of the Fe3+ chelate, 5a POP, was further evaluated as a function of iron concentration at the clinically-relevant field strength of 3 T yielding relaxivities r1 and r2 of 0.56 s−1 mM−1 and 1.67 s−1 mM−1, respectively, compared to 0.50 s−1 mM−1 and 1.07 s−1 mM−1 values of r1 and r2 at 9.4 T, respectively. […]
as §1, with “NMR” for “NMR measurements. NMR”

RAW cells = assay: NAO flow cytometry assay for cytotoxicity (apoptosis); format: cell-based, murine; details: 16 h labeling, compared to unlabeled cells
Protocol: We investigated the potential effect of P-PFOB labeling on RAW cell viability and phenotype (FIG. 4A-FIG. 4D). To study cytotoxicity, we used a flow cytometry assay for apoptosis (FIGS. 4A-4C) using 10-N-nonyl acridine orange (NAO).^20 As a positive control to induce oxidative stress, 10% ethanol was added to the cell media. […] Side-scatter is routinely used in flow cytometry to distinguish cell types by granularity. Labeled cells often display increased granularity with internalization of PFC droplets. To assay cell phenotype, we used flow cytometry to monitor potential changes in cell surface CD86 expression as a marker for macrophage activation, where increased levels indicated a pro-inflammatory response to label. Lipopolysaccharide (LPS) treatment was used as a positive control to induce a pro-inflammatory phenotype.
Viability assay. 10-N-nonyl acridine orange (NAO) was obtained from Invitrogen (A1372, Carlsbad, CA). NE labeled and control RAW cells were stained with 100 ng/ml of NAO for 15 minutes followed by washes according to manufacturer's instructions. As a positive control, cells were stressed by incubation with 10% ethanol at 37° C. containing 5% CO2 for 90 minutes before NAO staining. Green fluorescence from NAO dye (emission max at 520 nm) was detected using flow cytometry (LSR Fortessa, BD Biosciences).

[7] = final [M3+] 10 uM, final [ligand] 70 uM, pH 2.1 (8 mM HCl)

Structure (SMILES): O=Cc1cc(C(F)(F)C(F)(F)C(F)(F)C(F)(F)C(F)(F)C(F)(F)F)ccc1O [3a, 5-Perfluorohexyl-salicylaldehyde]
- R1 (intramolecular 19F) [1]: 1.33 ± 0.01 s⁻¹
- R2 (intramolecular 19F) [1]: 1.75 ± 0.01 s⁻¹

Structure (SMILES): O=Cc1cccc(C(F)(F)C(F)(F)C(F)(F)C(F)(F)C(F)(F)C(F)(F)F)c1O [3b, 3-Perfluorohexyl-salicylaldehyde]
- R1 (intramolecular 19F) [1]: 0.87 ± 0.01 s⁻¹
- R2 (intramolecular 19F) [1]: 1.12 ± 0.01 s⁻¹

Structure (SMILES): [Cl][Fe]([Cl])[Cl] [FeCl3]
- kobs ([2]; final [M3+] 5 uM, final [ligand] 70 uM, pH 2.1 (8 mM HCl)): 0.79 min⁻¹
- kobs [2, 7]: 0.70 min⁻¹

Structure (SMILES): [Cl][Ga]([Cl])[Cl] [GaCl3]
- kobs [2, 7]: 0.043 min⁻¹

Structure (SMILES): O=C(CC(=O)C(F)(F)F)c1ccccc1 [H-bta]
- enhancing relaxation [3]: highly effective
- stability under EDTA competition and cell labeling [3]: not stable enough

Structure (SMILES): CC(C)(C)C(=O)CC(=O)C(F)(F)C(F)(F)C(F)(F)F [H-fod]
- enhancing relaxation [3]: highly effective
- stability under EDTA competition and cell labeling [3]: not stable enough

Structure (SMILES): O=C(CC(=O)C(F)(F)F)C(F)(F)F [H-hfp]
- enhancing relaxation [3]: highly effective
- stability under EDTA competition and cell labeling [3]: not stable enough

Structure (SMILES): C/C(O)=C/C(=O)C(F)(F)C(F)(F)C(F)(F)F [H-hhd]
- enhancing relaxation [3]: highly effective
- stability under EDTA competition and cell labeling [3]: not stable enough

Structure (SMILES): C/C(O)=C/C(=O)C(F)(F)C(F)(F)C(F)(F)C(F)(F)C(F)(F)C(F)(F)F [H-tdd]
- enhancing relaxation [3]: highly effective
- stability under EDTA competition and cell labeling [3]: not stable enough

Structure (SMILES): O=C(CC(=O)C(F)(F)F)c1cccs1 [H-tta]
- enhancing relaxation [3]: highly effective
- stability under EDTA competition and cell labeling [3]: not stable enough

Structure (SMILES): [Cl-].[Cl-].[Cl-].[In+3] [InCl3]
- kobs ([2]; final [M3+] 2 uM, final [ligand] 14 uM, pH ~5 (unbuffered H2O)): >10 min⁻¹
- kobs ([2]; final [M3+] 10 uM, final [ligand] 70 uM, pH 7.4 HEPES): 0.0322 min⁻¹

Structure (SMILES): FC1(F)OC(F)(F)C(F)(F)OC(F)(F)C(F)(F)OC(F)(F)C(F)(F)OC(F)(F)C(F)(F)OC1(F)F [PFCE, perfluoro-15-crown-5-ether]
- half-life in vivo (body) [4]: > 100 days
- T1 [5]: ~0.9 ms

Structure (SMILES): FC(F)(F)C(F)(F)C(F)(F)C(F)(F)C(F)(F)C(F)(F)C(F)(F)C(F)(F)Br [PFOB, perfluorooctylbromide]
- R1 ([6]; 3 T): 0.79 s⁻¹
- R1 ([6]; 9.4 T): 1.4 s⁻¹
- half-life in vivo (body) [4]: 3 to 8 days
- T1 [5]: ~1200 ms

Structure (SMILES): CCO [ethanol]
- cytotoxicity (NAO apoptosis assay) (RAW cells): display cytotoxicity

— patent publication US12325715B2, “Fluorous metal chelates compositions” (The Regents of the University of California, priority 2018, dated 2025)
